Experimental data from patent US20200383970A1, “Morphinan Derivatives with High Oral Bioavailability” (Alkermes Pharma Ireland Limited, priority 2009, published 2020).
Read-outs that look alike come from different tables or passages of the source.

Assays:
[1] = dog, oral dose 1 (mg); Reuning et at. J Pharm Sci. 1979; cited from earlier work
[2] = Pharmacokinetic analysis following PO administration in rat
[3] = Pharmacokinetic analysis following PO administration in monkey
[4] = Pharmacokinetic analysis following PO administration in dog; type: in vivo
Experimental: Example 2: Pharmacokinetic analysis of Compound 1: The PK of Compound 1 and the reference compound Naltrexone was determined following IV (1 mg/kg) and PO (10 mg/kg or 1 mg/kg) administration. Concentrations of Compound 1 and naltrexone were determined by LC-MS/MS. The PK parameters were determined by noncompartmental analysis using WiNonlin (v5.1). FIGS. 2-4 show the PK profiles of naltrexone and Compound 1.

Row | SMILES | AUC∞ [1] [ng·h/mL] | Bioavailability (F %) [1] [%] | Cmax [1] [ng/mL] | AUC(0-inf) ([2]; rat, in vivo, po, 10 mg/kg) [ng·h/mL] | Cmax ([2]; rat, in vivo, po, 10 mg/kg) [ng/mL] | bioavailability ([2]; rat, in vivo, po, 10 mg/kg) [%] | AUC(0-inf) ([3]; monkey, in vivo, po, 10 mg/kg) [ng·h/mL] | Cmax ([3]; monkey, in vivo, po, 10 mg/kg) [ng/mL] | bioavailability ([3]; monkey, in vivo, po, 10 mg/kg) [%] | AUC(0-inf) ([4]; dog, in vivo, po, 1 mg/kg) [ng·h/mL] | half-life ([4]; dog, in vivo, po, 1 mg/kg) [min] | improvement in oral bioavailability in comparison with naltrexone ([4]; dogs, oral administration) | Cmax ([4]; in vivo, 1 mg/kg, dog, oral dose 1 (mg)) [ng/mL] | bioavailability ([4]; in vivo, 1 mg/kg, dog, oral dose 1 (mg), read-out: Bioavailability (F %)) [%] | half-life ([2]; rat, in vivo, po, 10 mg/kg) [min] | improvement in oral bioavailability in comparison with naltrexone ([2]; rats, oral administration) [fold] | half-life ([3]; monkey, in vivo, po, 10 mg/kg) [min] | improvement in oral bioavailability in comparison with naltrexone ([3]; monkeys, oral administration)
1 | O=C1CC[C@@]2(O)[C@H]3Cc4ccc(O)c5c4[C@@]2(CCN3CC2CC2)[C@H]1O5 [Naltrexone, reference compound] | 4.2 | 1.1 | 2.7 | 150 | 61.6 | 3 | 54 | 13 | 13 | – | – | – | – | – | – | – | – | –
2 | NC(=O)c1ccc2c(c1O)[C@]13CCN(CC4CC4)[C@H](C2)[C@]1(O)CCC(=O)C3 [Compound 1] | – | – | – | 1320 | 929 | 15 | 4470 | 627 | 68 | 491 | 192 | over 50 fold | 104 | 66 | 72 | 4 | 324 | over 4 fold
